Data as given in patent US9212168B2 (priority 2011, dated 2015).

System: HCV genotype 1a replicon
Experiment: HCV genotype 1a replicon assay (NS3 protease activity readout)
Assay type: cell-based, hepatitis C virus
Details: Hepatitis C virus, read-out: Genotype 1a, HCV genotype 1a replicon
How it was run: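 Genotype 1a subgenomic replicon cells (APC89, Huh7.5) were treated with compound dose-responses in G418-free medium, 0.5% DMSO final, for 48 or 72 hours at 37° C. Lysate NS3/4a protease activity measured with 15 μM FRET substrate, 20 min at 37° C (ex 340/em 509 nm); EC50 by 4-parameter fit.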

`CNC(=O)N1C[C@@H](C)N(c2ccc(C(=O)Nc3cc(OC(F)(F)F)c(-c4ccc(-c5c[nH]c([C@@H]6C[C@H](C)CN6C(=O)C(c6ccccc6)N(C)C)n5)cc4)cc3Cl)cn2)C[C@@H]1C` (stereo partly shown) [Example 7-11] and `CCN(CC)C(C(=O)N1C[C@@H](C)C[C@H]1c1nc(-c2ccc(-c3cc(Cl)c(NC(=O)c4ccc(N5C[C@H](C)N(C(=O)NC)C[C@H]5C)nc4)cc3OC(F)(F)F)cc2)c[nH]1)c1ccccc1` (stereo partly shown) [Example 7-12] cannot be ordered by EC50: less than 0.1 nM for the first, less than 0.1 nM for the second.

`CNC(=O)N1C[C@@H](C)N(c2ccc(C(=O)Nc3cc(OC(F)(F)F)c(-c4ccc(-c5c[nH]c([C@@H]6C[C@H](C)CN6C(=O)C(C)N(C)C(=O)OC)n5)cc4)cc3Cl)cn2)C[C@@H]1C` (stereo partly shown) [Example 7-14] and `COC(=O)N[C@H](C(=O)N1C[C@@H](C)C[C@H]1c1nc(-c2ccc(-c3cc(Cl)c(NC(=O)c4ccc(N5CCN(C(=O)C(C)N(C)C)C[C@H]5C)nc4)cc3OC(F)(F)F)cc2)c[nH]1)C(C)C` (stereo partly shown) [Example 12-23] cannot be ordered by EC50: less than 0.1 nM for the first, less than 0.1 nM for the second.

`COC(=O)N[C@H](C(=O)N1[C@@H]2C[C@@H]2C[C@H]1c1nc(-c2ccc(-c3cc(Cl)c(NC(=O)c4ccc(N5CCN(C(=O)C6CC6)C[C@H]5C)nc4)cc3C(F)(F)F)cc2)c[nH]1)C(C)C` [Example 8-3] and `COC(=O)N[C@H](C(=O)N1[C@@H]2C[C@@H]2C[C@H]1c1nc(-c2ccc(-c3cc(Cl)c(NC(=O)c4ccc(N5CCN(C(=O)C6CC67CC7)C[C@H]5C)nc4)cc3C(F)(F)F)cc2)c[nH]1)C(C)C` (stereo partly shown) [Example 8-6] fall in the same range of EC50: 0.1 to 1 nM for the first, 0.1 to 1 nM for the second.

First: COC(=O)N[C@H](C(=O)N1[C@@H]2C[C@@H]2C[C@H]1c1nc(-c2ccc(-c3cc(Cl)c(NC(=O)c4ccc(N5CCN(C(=O)C(C)(C)C)C[C@H]5C)nc4)cc3C(F)(F)F)cc2)c[nH]1)C(C)C [Example 8-5]
Second: COC(=O)N[C@H](C(=O)N1C[C@@H](C)C[C@H]1c1nc(-c2ccc(-c3cc(Cl)c(NC(=O)c4ccc(N5CCN(C(=O)C(C)(C)N(C)C)C[C@H]5C)nc4)cc3OC(F)(F)F)cc2)c[nH]1)C(C)C [Example 12-20]
The EC50 of the first is higher: 0.1 to 1 nM for the first, less than 0.1 nM for the second. The second is the more potent here.

First: COC(=O)N[C@H](C(=O)N1[C@@H]2C[C@@H]2C[C@H]1c1nc(-c2ccc(-c3ccc(C(=O)Nc4ccc(N5CCN(C(=O)C(C)(C)C)C[C@H]5C)nc4)cc3OC(F)(F)F)cc2)c(Cl)[nH]1)C(C)C [Example 9-1]
Second: COC(=O)N[C@H](C(=O)N1C[C@@H](N(C)C)C[C@H]1c1nc(-c2ccc(-c3ccc(C(=O)Nc4ccc(N5CCN(C(=O)C(C)(C)C)C[C@H]5C)nc4)cc3OC(F)(F)F)cc2)c(Cl)[nH]1)C(C)C [Example 10-3]
The EC50 of the first is higher: 0.1 to 1 nM for the first, less than 0.1 nM for the second. The second is the more potent here.

`COC(=O)N[C@H](C(=O)N1C[C@@H](N(C)C)C[C@H]1c1nc(-c2ccc(-c3ccc(C(=O)Nc4ccc(N5CCN(C(=O)N(C)C)C[C@H]5C)nc4)cc3OC(F)(F)F)cc2)c(Cl)[nH]1)C(C)C` [Example 10-4] and `CCN(C)C(C)C(=O)N1CCN(c2ccc(C(=O)Nc3cc(OC(F)(F)F)c(-c4ccc(-c5c[nH]c([C@@H]6C[C@H](C)CN6C(=O)[C@@H](NC(=O)OC)C(C)C)n5)cc4)cc3Cl)cn2)[C@H](C)C1` (stereo partly shown) [Example 12-22] fall in the same range of EC50: 0.1 to 1 nM for the first, 0.1 to 1 nM for the second.

First: CCOCCC(C)(C)C(=O)N1CCN(c2ccc(C(=O)Nc3cc(OC(F)(F)F)c(-c4ccc(-c5c[nH]c([C@@H]6C[C@H](C)CN6C(=O)[C@@H](NC(=O)OC)C(C)C)n5)cc4)cc3Cl)cn2)[C@H](C)C1 [Example 12-3]
Second: COC(=O)N[C@H](C(=O)N1C[C@@H](C)C[C@H]1c1nc(-c2ccc(-c3cc(Cl)c(NC(=O)c4ccc(N5CCN(C(=O)C(C)(C)CN)C[C@H]5C)nc4)cc3OC(F)(F)F)cc2)c[nH]1)C(C)C [Example 12-36]
The EC50 of the first is lower: less than 0.1 nM for the first, 10 to 1000 nM for the second.

First: CCC(CO)(CO)C(=O)N1CCN(c2ccc(C(=O)Nc3cc(OC(F)(F)F)c(-c4ccc(-c5c[nH]c([C@@H]6C[C@H](C)CN6C(=O)[C@@H](NC(=O)OC)C(C)C)n5)cc4)cc3Cl)cn2)[C@H](C)C1 [Example 12-4]
Second: COC(=O)N[C@H](C(=O)N1C[C@@H](C)C[C@H]1c1nc(-c2ccc(-c3cc(Cl)c(NC(=O)c4ccc(N5CCN(C(=O)N(CCO)CCO)C[C@H]5C)nc4)cc3OC(F)(F)F)cc2)c[nH]1)C(C)C [Example 12-16]
The EC50 of the first is lower: less than 0.1 nM for the first, 0.1 to 1 nM for the second. The first is the more potent here.

First: COC(=O)N[C@H](C(=O)N1C[C@@H](C)C[C@H]1c1nc(-c2ccc(-c3cc(Cl)c(NC(=O)c4ccc(N5CCN(C(=O)C6CCCN6C(N)=O)C[C@H]5C)nc4)cc3OC(F)(F)F)cc2)c[nH]1)C(C)C (stereo partly shown) [Example 12-6]
Second: COC(=O)N[C@H](C(=O)N1C[C@@H](C)C[C@H]1c1nc(-c2ccc(-c3cc(Cl)c(NC(=O)c4ccc(N5CCN(C(=O)C6CCOCC6)C[C@H]5C)nc4)cc3OC(F)(F)F)cc2)c[nH]1)C(C)C [Example 12-27]
The EC50 of the first is lower: less than 0.1 nM for the first, 0.1 to 1 nM for the second.

First: COC(=O)N[C@H](C(=O)N1C[C@@H](C)C[C@H]1c1nc(-c2ccc(-c3cc(Cl)c(NC(=O)c4ccc(N5CCN(C(=O)c6ccccn6)C[C@H]5C)nc4)cc3OC(F)(F)F)cc2)c[nH]1)C(C)C [Example 12-7]
Second: COC(=O)N[C@H](C(=O)N1C[C@@H](C)C[C@H]1c1nc(-c2ccc(-c3cc(Cl)c(NC(=O)c4ccc(N5CCN(C(=O)C6(N)CC6(C)C)C[C@H]5C)nc4)cc3OC(F)(F)F)cc2)c[nH]1)C(C)C (stereo partly shown) [Example 12-9]
The EC50 of the first is higher: 0.1 to 1 nM for the first, less than 0.1 nM for the second. The second is the more potent here.

`COC(=O)N[C@H](C(=O)N1C[C@@H](C)C[C@H]1c1nc(-c2ccc(-c3cc(Cl)c(NC(=O)c4ccc(N5CCN(C(=O)C6(N(C)C)CC6)C[C@H]5C)nc4)cc3OC(F)(F)F)cc2)c[nH]1)C(C)C` [Example 12-10] and `COC(=O)N[C@H](C(=O)N1C[C@@H](C)C[C@H]1c1nc(-c2ccc(-c3cc(Cl)c(NC(=O)c4ccc(N5CCN(C(=O)C6CCC6(C)C)C[C@H]5C)nc4)cc3OC(F)(F)F)cc2)c[nH]1)C(C)C` (stereo partly shown) [Example 12-21] cannot be ordered by EC50: less than 0.1 nM for the first, less than 0.1 nM for the second.

`COC(=O)N[C@H](C(=O)N1C[C@@H](C)C[C@H]1c1nc(-c2ccc(-c3cc(Cl)c(NC(=O)c4ccc(N5CCN(C(=O)NN6CCOCC6)C[C@H]5C)nc4)cc3OC(F)(F)F)cc2)c[nH]1)C(C)C` [Example 12-18] and `COC(=O)N[C@H](C(=O)N1C[C@@H](C)C[C@H]1c1nc(-c2ccc(-c3cc(Cl)c(NC(=O)c4ccc(N5CCN(C(=O)NN6CCS(=O)(=O)CC6)C[C@H]5C)nc4)cc3OC(F)(F)F)cc2)c[nH]1)C(C)C` [Example 12-19] cannot be ordered by EC50: less than 0.1 nM for the first, less than 0.1 nM for the second.

`COC(=O)N[C@H](C(=O)N1C[C@@H](C)C[C@H]1c1nc(-c2ccc(-c3cc(Cl)c(NC(=O)c4ccc(N5CCN(C(=O)C(C)(C)N6CCOCC6)C[C@H]5C)nc4)cc3OC(F)(F)F)cc2)c[nH]1)C(C)C` [Example 12-26] and `COC(=O)N[C@H](C(=O)N1C[C@@H](C)C[C@H]1c1nc(-c2ccc(-c3cc(Cl)c(NC(=O)c4ccc(N5CCN(C(=O)CC6CCOCC6)C[C@H]5C)nc4)cc3OC(F)(F)F)cc2)c[nH]1)C(C)C` [Example 12-28] cannot be ordered by EC50: less than 0.1 nM for the first, less than 0.1 nM for the second.

`COC(=O)CC(=O)NCC(C)(C)C(=O)N1CCN(c2ccc(C(=O)Nc3cc(OC(F)(F)F)c(-c4ccc(-c5c[nH]c([C@@H]6C[C@H](C)CN6C(=O)[C@@H](NC(=O)OC)C(C)C)n5)cc4)cc3Cl)cn2)[C@H](C)C1` [Example 12-33] and `COC(=O)N[C@H](C(=O)N1C[C@@H](C)C[C@H]1c1nc(-c2ccc(-c3cc(Cl)c(NC(=O)c4ccc(N5CCN(C(=O)C(C)(C)CNC(=O)CCCC(=O)O)C[C@H]5C)nc4)cc3OC(F)(F)F)cc2)c[nH]1)C(C)C` [Example 12-34] fall in the same range of EC50: 0.1 to 1 nM for the first, 0.1 to 1 nM for the second.
